According to paper PMC10754035 (Cancer Research Communications, 2023):
Read-outs that look alike come from different tables or passages of the source.

Legend:
[1] = target: T1, KRAS G12D (Homo sapiens, UniProt P01116, G12D); design: method as in PMID 31332011; settings: ITC; cited from earlier work
T1 construct: Human His-tagged KRAS4B (1-169) G12D, G12V and G12C were custom synthesized; 6His (pET-28a(+)-TEV vector) (N); host or cells: E. coli BL21 star (DE3)

[2] = target: T2, GTP-KRAS G12D binding to GST-RBD (Homo sapiens, UniProt P01116, G12D); assay: KRAS G12D/GST-RBD pulldown assay; assay type: biochemical; settings: for IC50: GST pulldown, Fig. 2 legend, read-out: IC50, inhibition of GTP-KRAS G12D/GST-RBD binding
T2 construct: Human His-tagged KRAS4B (1-169) G12D, G12V and G12C were custom synthesized; Addgene (GST-RBD) Addgene 13338; host or cells: E. coli BL21 star (DE3)
T2 sequence (P01116 1-169 isoform P01116-2 G12D): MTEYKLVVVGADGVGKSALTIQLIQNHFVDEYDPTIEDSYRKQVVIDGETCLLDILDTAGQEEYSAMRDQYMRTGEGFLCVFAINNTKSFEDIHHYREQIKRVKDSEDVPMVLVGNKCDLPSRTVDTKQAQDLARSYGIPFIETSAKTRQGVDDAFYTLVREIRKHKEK
Procedure: For pulldown experiment, KRAS G12D was preloaded with either GTP or GDP as described above. GDP- or GTP-bound KRAS G12D proteins (250 nmol/L in 100 µL) were then incubated with indicated compound at 37°C for 15–16 minutes. GST-RBD (final 500 nmol/L) was then added and the mixture rocked at 37°C for 1 hour. Pierce glutathione agarose beads (Thermo Fisher Scientific; 20 µL) were then added and the mixture rocked at 37°C for 1 hour. The beads were then washed and the samples were processed for SDS-PAGE and Western blotting with respective antibodies to check the interaction between KRAS-GTP and GST-RBD proteins in presence or absence of the compounds. All the protein dilutions and washes were carried out in a buffer containing 25 mmol/L Tris (pH 7.5), 100 mmol/L NaCl, 5 mmol/L MgCl2, 1% NP-40, 5% glycerol, and 0.1 mmol/L DTT.
Expression and purification of GST-RBD: The Raf1-GST-RBD in pGEX-2T vector in DH5α cells was obtained from Addgene (Raf1 GST RBD 1-149, Plasmid catalog # 13338). GST-RBD plasmid DNA was transformed in BL21*(DE3) bacteria, streaked on agar plate to obtain the colonies . A distinct colony was picked and grown in ampicillin selection media to OD600 of around 0.6-0.8 before induction with IPTG (0.5 mM). Bacterial pellet was resuspended with lysis buffer (50 mM Tris HCL (pH 7.5), 150 mM NaCl, 0.5% Triton X-100, 5 mM MgCl2, 1 mM DTT, 10% Glycerol, 3 mM β-mercaptoethanol) and homogenized. The homogenized lysate was centrifuged at 14000 rpm at 4 °C for 40 min and the resulting supernatant was collected and filtered. The filtered supernatant was incubated with glutathione agarose (Pierce^TM) beads (Thermo Scientific, USA) at 4 °C for 60 min. After incubation, beads and lysate suspension was passed through Bio-Rad Econo column. The beads were washed using lysis buffer (as described above), and the GST-RBD eluted with elution buffer (50 mM Tris HCL (pH 7.5), 150 mM NaCl, 0.5% Triton X-100, 5 mM MgCl2, 1 mM DTT, 10% Glycerol, 10 mM Glutathione). Eluted GST-RBD protein fractions were buffer exchanged into 25 mM Tris (pH 7.5), 150 mM NaCl, 0.5 mM DTT and 5 mM MgCl2 buffer and stored at -80°C.
GTP and GDP nucleotide exchange for GST-RBD pull down: KRAS protein was exchanged with GTP (Sigma, USA) and GDP (Sigma, USA) using EDTA- loading procedure. The RAS proteins (235 µM final) were incubated with ~40-fold molar excess of EDTA (10 mM final), and ~45-fold molar excess of either GDP or GTP for 90 min at 37°C. After incubation, the sample was kept on ice for 10 minutes before incubating with ice-cooled 1M MgCl2 (65 mM final) for 20 minutes to stop the reaction. To remove excess unbound nucleotide, EDTA and magnesium, the proteins were re-buffered using PD10 columns (GE Life Sciences) into (25 mM Tris (pH 7.5), 150 mM NaCl, 0.5 mM DTT and 5 mM MgCl2) buffer and concentrated using Millipore spin ultrafiltration devices (10,000 Da cut off, 4,000 x g). The protein concentration was measured using Pierce Rapid GOLD BCA Protein Assay Kit (Thermo Scientific, USA) and aliquots were stored in -80°C.

[3] = target: T1, KRAS G12D; assay: Isothermal titration calorimetry, KRAS G12D; assay type: binding; settings: ITC, KRAS G12D-NE (non-exchanged), 25°C
Procedure: All isothermal titration calorimetry (ITC) experiments were carried out at 25°C on a MicroCal PEAQ ITC Automated (Malvern). […] The final ITC buffer in the syringe and the cell was 25 mmol/L Tris HCl (pH 8.0), 100 mmol/L NaCl, 0.1 mmol/L DTT, 5% glycerol, 1% NP40, 5 mmol/L MgCl2, and 5% DMSO. ITC titration experiments were carried out with 19 injections, 2 µL per injection, and 150 seconds spacing between each injection. Reference cell power was set to 5 µcal/second and stirring speed was 750 rpm. Data were analyzed using a one site binding model with the Malvern analysis software. All ITC experiments were performed at the biophysical facility at the Institute for Structural Biology, Drug Discovery and Development (ISB3D) at Virginia Commonwealth University (Richmond, VA) and the Massey Cancer Center.
Expression and purification of RAS proteins: Human His-tagged KRAS4B (1-169) G12D, G12V and G12C were custom synthesized and cloned into pET-28a(+)-TEV vector to generate pET-28a(+)-6His-KRAS (1-169) plasmids by GenScript USA Inc., Piscataway, NJ. The proteins were expressed and purified as described below. The full length biotinylated human KRAS4B G12D (His6-MBP-tev-Avi-Hs.KRAS4b G12D (2-188) protein was obtained from Dr Dominic Esposito and Dr. William Gillette from the NCI RAS Initiative at the Frederick National Laboratory. Avi-KRAS4b (2-188) G12D was cloned, expression and purified as described previously (1,2).
Expression and purification of KRAS proteins: BL21 star (DE3) competent cells were transformed with pET-28a(+)-6His-KRAS (1-169) plasmids from GenScript, and the resulting colonies were picked under kanamycin selection. The colonies were grown in LB broth and induced with 0.5mM IPTG for 4 hours when OD reached 0.6-0.8. Bacteria pellets were lysed in 25mM Tris HCL (pH7.8) buffer containing 300mM NaCl, 5mM MgCl2, 10mM Imidazole, 5% Glycerol and 3mM β-mercaptoethanol. Membrane filter-cleared lysate supernatants were incubated with HisPur Ni-NTA resin (Thermo scientific) in an oscillating platform at 4°C for 50 minutes. Econo disposable column (Bio-Rad) was used for washing the beads 3 times with 25mM Tris HCl (pH7.8), 300mM NaCl, 5mM MgCl2, 5% Glycerol buffer with 10mM, 20mM and 30mM Imidazole, respectively. Elution was carried with 25mM Tris HCl (pH7.8), 300mM NaCl, 5mM MgCl2, 5% Glycerol and 500mM Imidazole buffer. After confirming the eluted fraction purity on SDS-PAGE gel, proteins fractions were further purified using HiLoad 16/600 superdex 75 PG column in AKTA system. Protein was eluted in 25mM Tris HCL (pH7.8), 150mM NaCl, 5mM MgCl2 and 0.5mM DTT. KRAS protein aliquots were stored in -80°C.
GCP and NH-GDP nucleotide exchange for ITC: KRAS G12D protein in 25 mM Tris HCL (pH 8.0), 1 mM Calcium Chloride Dihydrate and 200 mM (NH4)2SO4 buffer was added to alkaline phosphatase beads (Sigma, USA) (2U per mg of KRAS) and to non-hydrolysable nucleotide analogs, GCP (β,γ-Methyleneguanosine 5′-triphosphate sodium salt, Sigma, USA) or GDP-NH (Guanosine 5′-[β-thio]diphosphate trilithium salt, Sigma, USA) in molar ratio of 10:1 (Nucleotide:KRAS). The reaction mixture was incubated with gentle rotation for 14-18 hrs at 4 °C. After incubation, the mixture was centrifuged at 1500 g, 4°C to remove the alkaline phosphatase beads. MgCl2 (20 mM) and an additional amount of GCP or NH-GDP in molar ratio of 5:1 (Nucleotide:KRAS) were added, and incubated at room temperature for 1 hr. After incubation, nucleotide exchanged protein was desalted and buffer exchanged at 4 °C using PD-10 column (Catalog # 17085101, GE Healthcare, USA), into a final buffer containing 25 mM Tris HCL (pH 7.5), 150 mM NaCl, 5 mM MgCl2 and 0.5 mM DTT. Buffer exchanged protein was concentrated using Amicon ultra centrifugal filter-10K cut off (Catalog # UFC501024, MilliporeSigma, USA). The protein concentration was measured using Pierce Rapid GOLD BCA Protein Assay Kit (Thermo Scientific, USA) and aliquots were stored in -80°C.

T1 sequence (P01116 1-169 isoform P01116-2 G12D): as above

Structure (SMILES) | Kd [1] [µM] | IC50 [2] [µM] | Kd [3] [µM] | loss of potency relative to KRB-456 ([2]; GST pulldown IC50)
Cn1cnc(Cn2ccc3ccc(CNCc4[nH]c5ccccc5c4[C@H]4NC(=O)c5ccc(O)cc54)cc32)c1 [BI-2852] | 0.74 | – | – | –
COC(=O)C1C2C3(C)C(=O)C=CC2(OC3=O)C2CCC3(CI)CC12CC3=O (centres unmarked) [IB-21G] | – | 0.36 | 0.641 | –
C=C1C[C@]23C[C@@]1(OC(C)=O)CC[C@H]2[C@@]12C=CC(=O)[C@@](C)(C(=O)O1)[C@H]2[C@@H]3C(=O)OC [IB-21J] | – | 2.02 | 4.81 | about 10 fold
C=C1C[C@]23C[C@@]1(O)CC[C@H]2[C@@]12C=CC(=O)[C@@](C)(C(=O)O1)[C@H]2[C@@H]3C(=O)NCc1ccccc1 [IIA-15D] | – | 10.8 | 11.6 | –
